Consider 16 compounds from US5861388A, “Steroid inhibitors of estrone sulfatase and associated pharmaceutical compositions and methods of use” (SRI International, priority 1997, dated 1999).

As a reminder, the IC50 is the concentration needed to halve the response being measured. A low value points to inhibition by little substance.

For assay [1], the target named is T1, estrone sulfatase (Homo sapiens, UniProt P08842).
T1 construct: Estrone Sulfatase Assay with Intact Cells; host or cells: MCF-7
T1 sequence (P08842 22-583): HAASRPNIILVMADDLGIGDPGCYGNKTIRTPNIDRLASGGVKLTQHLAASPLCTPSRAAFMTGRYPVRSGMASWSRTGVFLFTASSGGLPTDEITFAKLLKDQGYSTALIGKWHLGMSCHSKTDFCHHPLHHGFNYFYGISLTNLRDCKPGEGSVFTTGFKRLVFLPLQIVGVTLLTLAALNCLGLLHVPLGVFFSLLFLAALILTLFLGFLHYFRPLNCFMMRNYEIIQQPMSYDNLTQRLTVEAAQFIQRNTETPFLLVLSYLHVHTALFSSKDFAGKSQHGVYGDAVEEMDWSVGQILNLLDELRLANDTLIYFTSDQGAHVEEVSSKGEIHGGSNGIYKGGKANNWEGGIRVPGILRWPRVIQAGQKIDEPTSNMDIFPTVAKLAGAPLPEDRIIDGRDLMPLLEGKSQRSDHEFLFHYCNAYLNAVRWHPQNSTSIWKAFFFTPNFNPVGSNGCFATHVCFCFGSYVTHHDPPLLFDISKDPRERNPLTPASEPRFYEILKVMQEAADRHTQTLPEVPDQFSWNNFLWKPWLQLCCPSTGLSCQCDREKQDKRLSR
Description: Estrone sulfatase assay with intact MCF-7 cells. The assay is classed as cell-based. As to conditions: concentration giving 50 % inhibition, 24 h, 3H-estrone sulfate substrate. The text has this:
Test for the Effects of Inhibitors on Estrone Sulfatase Activity in MCF-7 Cells:
Reagents: MCF-7 human breast cancer cells were supplied by the American Type Culture Collection, Rockville, Md. Eagle's minimum essential medium (MEM) and fetal calf serum (FCS) were purchased from Sigma Chemical Company, St. Louis, Mo. [4-^14 C] Estrone, [6,7-^3 H] estradiol and [6,7-^3 H(N)] estrone sulfate were obtained from New England Nuclear Research Products, Boston, Mass.
Estrone Sulfatase Assay with Intact Cells. The procedure of Duncan et al., Cancer Res. 53:298-303 (1993) was followed. MCF-7 cells were seeded in 60×15 mm culture dishes at 1×10^5 cells/dish and maintained in 4.0 mL of MEM containing 2 mM of glutamine and 5% of FCS. The cells were incubated at 37° C. in a 5% CO2 /95% air atmosphere and 100% humidity, with the medium changed every third day. When the cells reach 80% confluency, the intact monolayers were washed once with Earl's balanced salt solution and incubated in 4.0 mL of serum-free MEM containing the substrate (^3 H-estrone sulfate, 7 pmol, 9×10^5 dpm) and inhibitor dissolved in ethanol or ethanol alone. The final ethanol concentration was always be below 1%. The incubation continued for 24 h. 2.0 mL of medium was transferred into separate tubes containing 7×10^3 dpm of ^14 C-estrone. The mixture was vortexed vigorously for 60 s with 5 mL of toluene. After phase separation, 2.0 mL of the organic phase was transferred into a counting vial for scintillation counting. The amount of estrone sulfate hydrolyzed was calculated on the basis of the ^3 H counts obtained, with the added ^14 C-estrone used to correct for recovery through the extraction procedure.
The cells remaining in each culture dish were washed with saline once and then scraped with 1.0 mL of 0.5N NaOH into 10×75 mm tubes. The cell pellets in each tube were incubated at 50° C. for 20 min. to ensure that digestion was complete and that all proteins became soluble. An aliquot was then taken for protein determination by Lowry's method (Lowry et al., J. Biol. Chem. 193:265-275 (1951)).
The amount of estrone sulfate hydrolyzed with the inhibitor relative to that without the inhibitor was evaluated to give the percentage of inhibition.

The subject of assay [2] is MCF-7 human breast carcinoma xenografts. As to the kind of experiment: Tumor growth inhibition assay, MCF-7 human breast carcinoma xenografts in athymic mice. The assay is classed as in vivo, human MCF-7 xenografts in female BALB/c athymic mice. As to conditions: i.p. 1.0 mg/mouse/day for 5 weeks, mean ± S.E. The text has this:
In Vivo Efficacy Studies Using MCF-7 Cells in Nude Mice: For in vivo evaluation, human xenografts were used in nude (athymic) mice, in the context of a solid tumor assay. MCF-7 human breast carcinomas in nude mice were used as the model for evaluating the estrone sulfatase inhibitors. The protocol followed was essentially that of Yue et al., J. Steroid Biochem. 44:671-673 (1993). Because MCF-7 cells are known to require supplementation with estradiol to sustain progressive growth in athymic nude mice (Soule et al., Cancer Lett. 10:177-189 (1980)), estrone sulfate was used for supplemental estrogen in the model studies. The enzyme inhibitors were administered by intravenous injection, oral gavage, and intraperitoneal administration, and comparative efficacy of the various compounds were evaluated using these different routes. Female BALB/c athymic mice 4-6 weeks of age were supplied by Charles River Breeding Laboratories, Boston, Mass. MCF-7 cells for the in vitro cell growth inhibition assay were obtained from the American Type Culture Collection, Rockville, Md., and cultured under the same conditions as described above for the sulfatase assay. Tumor Growth Inhibition Assay (see […] et al. (1990), supra, Yue et al., supra, and Noel et al., Biochem. Pharmacol. 43:1263-1267 (1992): The athymic mice were housed five per cage in controlled conditions of light and humidity and received food and water ad libitum throughout the entire experiment. The mice were quarantined for three working days before use in experiments. Prior to the initiation of the antitumor experiments, the mice were housed for seven days to familiarize them with the experimental environment. Temperature was maintained at 72±5° F., with relative humidity at 35-70% and a 12-h light/dark cycle. The mice were fed certified Purina rodent chow and drinking water ad libitum. The source water was recirculated, deionized, UV-treated, and filtered (5-μm filter). At the beginning of the experiment, all but five of the mice underwent oophorectomies to eliminate the endogenous level of estrogen. After all animals recovered from surgery, all mice in the study received 5 μmol of estrone sulfate daily via gavage or subcutaneous (sc) injection. The dosing of estrone sulfate was carried out throughout the entire experiment. Seven days after the animals began treatment with estrone sulfate, each mouse was be injected sc twice (once in each flank) with 2.5×10^6 MCF-7 cells suspended in 0.1 mL of serum-free tissue culture medium to induce tumor growth. The growth rate was determined by measuring the tumors with calipers weekly. Tumor volumes were calculated according to the formula 4/3πr1^2,r2, where r1 and r2 represent the tumor radii. When the average tumor volume per mouse reached approximately 200 mm^3, animals began to receive various doses of estrone sulfatase inhibitors dissolved in 0.1 mL of phosphate buffered saline (PBS). Dosing was by oral gavage, intravenous injection, and intraperitoneal injection; daily dosing with estrone sulfatase inhibitors was continued throughout the remainder of the experiment. The estrone sulfatase inhibitors not soluble in aqueous solutions were dissolved in EtOH first and diluted with PBS to obtain the appropriate concentrations of inhibitor but keeping the concentration of EtOH below 1%. For each test compound, the mice were divided into several groups with five animals in each group. These groups were as follows: intact control group receiving PBS alone; oophorectomized control group receiving PBS alone; and oophorectomized treatment groups receiving various doses of estrone sulfatase inhibitors. […] The change in tumor volume in the treatment groups relative to that in the oophorectomized control group gave the percent inhibition of a given inhibitor.
In general terms: Xenograft models place foreign cells or tissue in a host animal.

For the compound `CC(=O)O[C@H]1CC[C@H]2[C@@H]3CCc4cc5c(cc4[C@H]3CC[C@]12C)C=NS(=O)(=O)O5` [Compound 4, 17β-acetoxyestra-1,3,5(10)-trieno-[3,2,e]-1',2',3'-oxathiazine-2',2'-dioxide], the midpoint of inhibition in assay [1], the IC50, lay at 12 nM.
For the compound `C[C@]12CC[C@@H]3c4cc5c(cc4CC[C@H]3[C@@H]1CCC2=O)OS(=O)(=O)N=C5` [Compound 6, Estra-1,3,5(10)-trien-17-ono-[3,2,e]-1',2',3'-oxathiazine-2',2'-dioxide], in assay [1], it took 9.3 nM to reach half-maximal inhibition (IC50). Also, in assay [2] (week 0, control 96.5 ± 5.2), the “Tumor Volume, week 0” value is 133.6 ± 15.9 mm^3. Further, the “Tumor Volume, week 1” value in assay [2] (week 1, control 184.1 ± 26.3) is on record as 185.8 ± 16.5 mm^3. Also, the “Tumor Volume, week 2” value in assay [2] (week 2, control 191.2 ± 36.1) worked out at 191.3 ± 25.1 mm^3. Besides, in assay [2] (week 3, control 232.9 ± 46.4), the “Tumor Volume, week 3” value is given as 181.8 ± 27.8 mm^3. In addition, in assay [2] (week 4, control 299.5 ± 54.3), the “Tumor Volume, week 4” value is on record as 234.0 ± 50.7 mm^3. In addition, the “Tumor Volume, week 5” value in assay [2] (week 5, control 349.0 ± 46.2) came to 285.8 ± 47.7 mm^3.
In the case of `C[C@]12CC[C@@H]3c4cc5c(cc4CC[C@H]3[C@@H]1CC[C@@H]2O)OS(=O)(=O)N=C5` [Compound 10, 17β-hydroxyestra-1,3,5(10)-trieno-[3,2,e]-1',2',3'-oxathiazine-2',2'-dioxide], in assay [1], half-maximal inhibition (IC50) required 20 nM.
In assay [1], `C[C@]12CC[C@@H]3c4cc5c(cc4CC[C@H]3[C@@H]1CC[C@@H]2O)OS(=O)(=O)NC5` [Compound 11, 17β-Hydroxyestra-1,3,5(10)-trieno-[3,2,e]-3',4'-dihydro-1',2',3'-oxathiazine-2',2'-dioxide] yielded an IC50 of 820 nM.
In assay [1], `C[C@]12CC[C@@H]3c4ccc5c(c4CC[C@H]3[C@@H]1CCC2=O)C=NS(=O)(=O)O5` [Compound 13, estra-1,3,5(10)-trien-17-ono-[3,4,e]-1',2',3'-oxathiazine-2',2'-dioxide] registered an IC50 of 44 nM.
In assay [1], `C[C@]12CC[C@@H]3c4ccc5c(c4CC[C@H]3[C@@H]1CC[C@@H]2O)CNS(=O)(=O)O5` [Compound 14, 17β-Hydroxyestra-1,3,5(10)-trieno-[3,4,e]-3',4'-dihydro-1',2',3'-oxathiazine-2',2'-dioxide] yielded an IC50 of 15000 nM.
Consider `CC[C@H]1CC[C@H]2[C@@H]3CCc4cc5c(cc4[C@H]3CC[C@]12C)C=NS(=O)(=O)O5` [Compound 17, 19-norpregna-1,3,5(10)-trieno-[3,2,e]-1',2',3'-oxathiazine-2',2'-dioxide], for which the midpoint of inhibition in assay [1], the IC50, lay at 50 nM.
The same measure, in the same setting: with `C=C1CC[C@H]2[C@@H]3CCc4cc5c(cc4[C@H]3CC[C@]12C)C=NS(=O)(=O)O5` [Compound 30, 17-methyleneestra-1,3,5(10)-trieno-[3,2,e]-1',2',3'-oxathiazine-2',2'-dioxide] the figure was 72 nM; with `C/C=C1/CC[C@H]2[C@@H]3CCc4cc5c(cc4[C@H]3CC[C@]12C)C=NS(=O)(=O)O5` [Compound 31, [17(20)Z]-norpregna-1,3,5(10),17(20)-tetraeno-[3,2,e]-1',2',3'-oxathiazine-2',2'-dioxide], 63 nM.
For the compound `CC/C=C1/CC[C@H]2[C@@H]3CCc4cc5c(cc4[C@H]3CC[C@]12C)C=NS(=O)(=O)O5` [Compound 32, [17(20)Z]-Propylideneestra-1,3,5(10)-trieno-[3,2,e]-1',2',3'-oxathiazine-2',2'-dioxide], it took 58 nM to reach half-maximal inhibition in assay [1] (IC50).
With `CCC/C=C1/CC[C@H]2[C@@H]3CCc4cc5c(cc4[C@H]3CC[C@]12C)C=NS(=O)(=O)O5` [Compound 33, [17(20)Z]-19,21-dinorchola-1,3,5(10),17(20)-tetraeno-[3,2,e]-1',2',3'-oxathiazine-2',2'-dioxide], in assay [1], the IC50 was determined as 720 nM.
`C[C@H]1CC[C@H]2[C@@H]3CCc4cc5c(cc4[C@H]3CC[C@]12C)C=NS(=O)(=O)O5` [Compound 34, 17β-methylestra-1,3,5(10)-trieno-[3,2,e]-1',2',3'-oxathiazine-2',2'-dioxide] registered an IC50 in assay [1] of 45 nM.
In assay [1], `CCC[C@H]1CC[C@H]2[C@@H]3CCc4cc5c(cc4[C@H]3CC[C@]12C)C=NS(=O)(=O)O5` [Compound 35, 17β-Propylestra-1,3,5(10)-trieno-[3,2,e]-1',2',3'-oxathiazine-2',2'-dioxide] displayed an IC50 of 120 nM.
The same measure, in the same setting: with `CCCC[C@H]1CC[C@H]2[C@@H]3CCc4cc5c(cc4[C@H]3CC[C@]12C)C=NS(=O)(=O)O5` [Compound 36, 17β-19,21-dinorchola-1,3,5(10)-trieno-[3,2,e]-1',2',3'-oxathiazine-2',2'-dioxide] the figure was 590 nM; with `C=C=C1CC[C@H]2[C@@H]3CCc4cc5c(cc4[C@H]3CC[C@]12C)C=NS(=O)(=O)O5` [Compound 40, 19-Norpregna-1,3,5(10),17(20),20-pentaeno-[3,2,e]-1',2',3'-oxathiazine-2',2'-dioxide], 74 nM.
In turn, `CO[C@H]1CC[C@H]2[C@@H]3CCc4cc5c(cc4[C@H]3CC[C@]12C)C=NS(=O)(=O)O5` [Compound 43, 17β-methoxyestra-1,3,5(10)-trieno-[3,2,e]-1',2',3'-oxathiazine-2',2'-dioxide] registered an IC50 in assay [1] of 50 nM.
